Consider 31 molecules from patent US9926282B2, “Phthalazinones and isoquinolinones as rock inhibitors” (BRISTOL-MYERS SQUIBB COMPANY, priority 2013, dated 2018).

One experiment addresses ROCK1 (Homo sapiens (Human), UniProt Q13464). The experiment can be described thus: ROCK assay (LABCHIP peptide phosphorylation), ROCK1. It counts as biochemical. Conditions: 5 μM ATP, 1.5 μM peptide substrate; read-out: ROCK1 IC50.
A further experiment deals with ROCK2 (Homo sapiens (Human), UniProt O75116). Nature of the experiment: ROCK assay (LABCHIP peptide phosphorylation), ROCK2. It counts as biochemical. Conditions: 5 μM ATP, 1.5 μM peptide substrate.

What is called IC50 is the concentration that inhibits the measured activity by half.

ROCK2, sequence (O75116 whole entry, species assumed): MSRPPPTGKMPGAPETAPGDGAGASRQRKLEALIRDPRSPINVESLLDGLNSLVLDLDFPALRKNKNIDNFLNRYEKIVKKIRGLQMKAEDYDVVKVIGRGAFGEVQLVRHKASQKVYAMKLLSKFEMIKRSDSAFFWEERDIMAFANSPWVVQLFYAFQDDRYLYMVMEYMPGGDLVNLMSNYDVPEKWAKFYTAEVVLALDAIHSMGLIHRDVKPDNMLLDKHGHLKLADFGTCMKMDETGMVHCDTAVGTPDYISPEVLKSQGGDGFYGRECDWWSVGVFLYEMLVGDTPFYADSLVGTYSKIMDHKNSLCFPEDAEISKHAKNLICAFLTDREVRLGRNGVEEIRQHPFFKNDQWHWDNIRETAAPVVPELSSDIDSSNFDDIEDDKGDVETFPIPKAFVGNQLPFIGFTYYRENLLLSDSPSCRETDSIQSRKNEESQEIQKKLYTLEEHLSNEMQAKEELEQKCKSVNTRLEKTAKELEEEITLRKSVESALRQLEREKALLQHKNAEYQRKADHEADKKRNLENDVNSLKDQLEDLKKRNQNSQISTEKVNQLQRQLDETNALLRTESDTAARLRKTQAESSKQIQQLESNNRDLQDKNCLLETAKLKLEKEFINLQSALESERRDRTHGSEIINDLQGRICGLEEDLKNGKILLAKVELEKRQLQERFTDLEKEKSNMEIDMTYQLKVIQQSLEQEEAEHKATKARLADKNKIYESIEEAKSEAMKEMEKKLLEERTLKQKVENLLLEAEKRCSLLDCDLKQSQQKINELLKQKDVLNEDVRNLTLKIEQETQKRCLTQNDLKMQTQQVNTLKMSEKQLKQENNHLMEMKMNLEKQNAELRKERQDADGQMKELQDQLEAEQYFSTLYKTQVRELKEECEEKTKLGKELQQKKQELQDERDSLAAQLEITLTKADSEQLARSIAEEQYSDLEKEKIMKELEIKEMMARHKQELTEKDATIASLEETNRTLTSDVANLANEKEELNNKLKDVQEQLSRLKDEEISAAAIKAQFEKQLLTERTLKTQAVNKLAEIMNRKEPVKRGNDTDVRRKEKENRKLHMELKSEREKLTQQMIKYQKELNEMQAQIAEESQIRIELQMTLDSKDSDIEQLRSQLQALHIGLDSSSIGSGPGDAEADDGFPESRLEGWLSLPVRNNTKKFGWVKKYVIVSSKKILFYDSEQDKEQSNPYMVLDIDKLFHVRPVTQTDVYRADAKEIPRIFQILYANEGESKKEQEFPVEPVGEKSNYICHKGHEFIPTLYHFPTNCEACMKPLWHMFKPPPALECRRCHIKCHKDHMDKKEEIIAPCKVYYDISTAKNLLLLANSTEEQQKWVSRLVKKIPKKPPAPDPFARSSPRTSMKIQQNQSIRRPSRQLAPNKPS
ROCK1, sequence (Q13464 whole entry, species assumed): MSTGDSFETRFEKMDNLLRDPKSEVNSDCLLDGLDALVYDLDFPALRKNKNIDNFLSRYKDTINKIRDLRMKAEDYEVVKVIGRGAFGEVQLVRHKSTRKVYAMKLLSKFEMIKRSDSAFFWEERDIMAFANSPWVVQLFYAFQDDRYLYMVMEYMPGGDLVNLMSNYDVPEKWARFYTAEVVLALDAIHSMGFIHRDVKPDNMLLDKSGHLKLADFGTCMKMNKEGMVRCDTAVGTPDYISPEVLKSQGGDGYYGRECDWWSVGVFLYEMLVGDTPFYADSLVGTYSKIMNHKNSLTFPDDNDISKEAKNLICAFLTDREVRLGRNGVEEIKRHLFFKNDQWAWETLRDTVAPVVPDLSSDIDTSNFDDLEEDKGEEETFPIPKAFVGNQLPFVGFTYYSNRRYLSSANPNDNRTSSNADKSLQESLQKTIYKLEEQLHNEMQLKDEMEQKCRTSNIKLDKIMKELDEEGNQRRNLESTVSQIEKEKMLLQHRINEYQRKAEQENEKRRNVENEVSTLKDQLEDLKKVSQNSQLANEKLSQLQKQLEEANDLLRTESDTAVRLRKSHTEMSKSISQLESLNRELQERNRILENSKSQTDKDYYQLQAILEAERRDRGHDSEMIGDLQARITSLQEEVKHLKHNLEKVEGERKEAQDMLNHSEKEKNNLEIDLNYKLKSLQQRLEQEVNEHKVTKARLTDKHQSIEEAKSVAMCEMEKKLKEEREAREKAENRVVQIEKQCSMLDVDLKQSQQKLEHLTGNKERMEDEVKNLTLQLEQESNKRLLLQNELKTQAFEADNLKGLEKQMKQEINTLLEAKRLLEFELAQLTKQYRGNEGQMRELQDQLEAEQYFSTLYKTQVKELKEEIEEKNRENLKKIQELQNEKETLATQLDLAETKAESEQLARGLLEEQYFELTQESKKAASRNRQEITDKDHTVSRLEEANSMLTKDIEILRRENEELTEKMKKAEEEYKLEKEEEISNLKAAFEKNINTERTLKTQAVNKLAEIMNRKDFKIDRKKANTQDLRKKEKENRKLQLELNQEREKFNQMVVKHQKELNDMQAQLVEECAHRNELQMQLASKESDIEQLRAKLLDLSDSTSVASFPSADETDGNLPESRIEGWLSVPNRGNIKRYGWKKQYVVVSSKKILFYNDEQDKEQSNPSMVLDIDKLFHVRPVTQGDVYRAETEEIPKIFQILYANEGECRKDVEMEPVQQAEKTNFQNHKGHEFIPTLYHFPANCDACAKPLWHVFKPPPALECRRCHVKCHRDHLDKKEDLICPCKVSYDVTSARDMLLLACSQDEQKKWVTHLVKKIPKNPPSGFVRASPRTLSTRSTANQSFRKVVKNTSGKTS

For the molecule `CCCc1cc(C(=O)Nc2ccc(-c3n[nH]c(=O)c4ccccc34)cc2)nn1C` [Example 229, 1-methyl-N-[4-(4-oxo-3,4-dihydrophthalazin-1-yl)phenyl]-5-propyl-1H-pyrazole-3-carboxamide], the IC50 on ROCK1 and against ROCK2 was 0.1 to 100 nM each time.
Regarding `CC1(C)CCc2[nH]cc(C(=O)Nc3ccc(-c4n[nH]c(=O)c5ccccc45)cc3)c2C1=O` [Example 97, 5,5-dimethyl-4-oxo-N-[4-(4-oxo-3,4-dihydrophthalazin-1-yl)phenyl]-4,5,6,7-tetrahydro-1H-indole-3-carboxamide], the IC50 at ROCK1 and against ROCK2 was 101 to 1000 nM each time.
For the molecule `Cc1nnc(NC(=O)Cc2ccc(-c3n[nH]c(=O)c4ccccc34)cc2)s1` [Example 31, N-(5-methyl-1,3,4-thiadiazol-2-yl)-2-[4-(4-oxo-3,4-dihydrophthalazin-1-yl)phenyl]acetamide], the IC50 at ROCK1 lay in the range of 1000 to 50000 nM; on ROCK2, 0.1 to 100 nM.
In the case of `O=C(Cc1ccc(-c2n[nH]c(=O)c3ccccc23)cc1)N1CCc2cc(OC(F)(F)F)cc(Br)c21` [Example 253, 4-(4-(2-(7-Bromo-5-(trifluoromethoxy)indolin-1-yl)-2-oxoethyl)phenyl)phthalazin-1(2H)-one], the IC50 on ROCK1 was in the range of 1000 to 50000 nM; against ROCK2, 101 to 1000 nM.
For “N-[4-(4-oxo-3,4- dihydrophthalazin-1- yl)phenyl]-1-[3- ylmethyl]-1H-indazole- 3-carboxamide [Example 170]” the same measures were 0.1 to 100 nM and 0.1 to 100 nM.
As to `O=c1[nH]nc(-c2ccc(Nc3nncc4ccccc34)cc2)c2ccccc12` [Example 85, 4-(4-(Phthalazin-1-ylamino)phenyl)phthalazin-1(2H)-one], the IC50 on ROCK1 and against ROCK2 was 0.1 to 100 nM throughout.
Take `COc1cc(NC(=O)c2nn(CC3CCOC3)c3ccccc23)ccc1-c1n[nH]c(=O)c2ccccc12` (centres unmarked) [Example 348, N-(3-Methoxy-4-(4-oxo-3,4-dihydrophthalazin-1-yl)phenyl)-1-((tetrahydrofuran-3-yl)methyl)-1H-indazole-3-carboxamide]: the IC50 at ROCK1 lay within 101 to 1000 nM; at ROCK2 it was 0.1 to 100 nM.
For `O=C(c1ccc2c(c1)N(C(=O)Cc1ccc(-c3n[nH]c(=O)c4ccccc34)cc1)CC2)N1CCC(O)CC1` [Example 295, 4-(4-{2-[6-(4-hydroxypiperidine-1-carbonyl)-2,3-dihydro-1H-indol-1-yl]-2-oxoethyl}phenyl)-1,2-dihydrophthalazin-1-one], in that order: 101 to 1000 nM and 0.1 to 100 nM.
For `O=C(Nc1ccc(-c2n[nH]c(=O)c3ccccc23)cc1)c1ccc(N2CCCC2)cc1` [Example 60], in that order: 0.1 to 100 nM and 0.1 to 100 nM.
For `CCOc1ccc2oc(C)c(C(=O)Nc3ccc(-c4n[nH]c(=O)c5ccccc45)cc3)c2c1` [Example 100, 5-ethoxy-2-methyl-N-[4-(4-oxo-3,4-dihydrophthalazin-1-yl)phenyl]-1-benzofuran-3-carboxamide], in that order: 0.1 to 100 nM and 0.1 to 100 nM.
On to `Cc1c(C(=O)Nc2ccc(-c3n[nH]c(=O)c4ccccc34)cc2)cnn1-c1ccccc1` [Example 189, 5-methyl-N-[4-(4-oxo-3,4-dihydrophthalazin-1-yl)phenyl]-1-phenyl-1H-pyrazole-4-carboxamide], for which the half-maximal inhibitory concentration (IC50) on ROCK1 and against ROCK2 was 0.1 to 100 nM in each case.
Consider `O=C(Cc1ccc(-c2n[nH]c(=O)c3ccccc23)cc1)N1CCN(c2ncccn2)CC1` [Example 15, 4-(4-{2-oxo-2-[4-(pyrimidin-2-yl)piperazin-1-yl]ethyl}phenyl)-1,2-dihydrophthalazin-1-one], for which the IC50 at ROCK1 and at ROCK2 was 1000 to 50000 nM each time.
Regarding `O=C(Cc1ccc(-c2n[nH]c(=O)c3ccccc23)cc1)N[C@@H]1CCc2ccccc21` [Example 81, (R)—N-(2,3-Dihydro-1H-inden-1-yl)-2-(4-(4-oxo-3,4-dihydrophthalazin-1-yl)phenyl)acetamide], the IC50 was in the range of 1000 to 50000 nM on ROCK1 and 101 to 1000 nM at ROCK2.
For `Cc1cn2cc(C(=O)Nc3ccc(-c4n[nH]c(=O)c5ccccc45)cc3)nc2cn1` [Example 121, 6-methyl-N-[4-(4-oxo-3,4-dihydrophthalazin-1-yl)phenyl]imidazo[1,2-a]pyrazine-2-carboxamide], in that order: 101 to 1000 nM and 0.1 to 100 nM.
For `CC(C)OC(=O)N1CCC(Cn2nc(C(=O)Nc3ccc(-c4n[nH]c(=O)c5ccccc45)cc3)c3ccccc32)CC1` [Example 349, Propan-2-yl 4-[(3-{[4-(4-oxo-3,4-dihydrophthalazin-1-yl)phenyl]carbamoyl}-1H-indazol-1-yl)methyl]piperidine-1-carboxylate], in that order: 0.1 to 100 nM and 0.1 to 100 nM.
For `Cc1nn(-c2ccccc2)c(C)c1C(=O)Nc1ccc(-c2n[nH]c(=O)c3ccccc23)cc1` [Example 219, 3,5-dimethyl-N-[4-(4-oxo-3,4-dihydrophthalazin-1-yl)phenyl]-1-phenyl-1H-pyrazole-4-carboxamide] the same measures were 0.1 to 100 nM and 0.1 to 100 nM.
For `CN(C)CCOc1ccc2c(C(=O)Nc3ccc(-c4n[nH]c(=O)c5ccccc45)cc3)cnn2c1` [Example 177, 6-[2-(dimethylamino)ethoxy]-N-[4-(4-oxo-3,4-dihydrophthalazin-1-yl)phenyl]pyrazolo[1,5-a]pyridine-3-carboxamide], the IC50 at ROCK1 and on ROCK2 was 0.1 to 100 nM each time.
Take `O=C(Cc1ccc(-c2n[nH]c(=O)c3ccccc23)cc1)N1CCc2ccc(O[C@@H]3CCOC3)cc21` [Example 274, 4-[4-(2-oxo-2-{6-[(3R)-oxolan-3-yloxy]-2,3-dihydro-1H-indol-1-yl}ethyl)phenyl]-1,2-dihydrophthalazin-1-one]: the IC50 on ROCK1 and on ROCK2 was 0.1 to 100 nM each time.
For `O=C(Nc1ccc(-c2n[nH]c(=O)c3ccccc23)cc1)c1cc2ccccc2n1Cc1ccccc1` [Example 136, 1-benzyl-N-[4-(4-oxo-3,4-dihydrophthalazin-1-yl)phenyl]-1H-indole-2-carboxamide], the IC50 at ROCK1 was 1000 to 50000 nM; at ROCK2, 0.1 to 100 nM.
Turning to `O=C(Nc1ccc(-c2n[nH]c(=O)c3ccccc23)cc1)c1csc(-c2ccccc2)n1` [Example 46, N-[4-(4-oxo-3,4-dihydrophthalazin-1-yl)phenyl]-2-phenyl-1,3-thiazole-4-carboxamide], the IC50 on ROCK1 lay in the range of 1000 to 50000 nM; at ROCK2 it was 0.1 to 100 nM.
For `O=c1[nH]nc(-c2ccc(Nc3nc4ccccc4o3)cc2)c2ccccc12` [Example 75, 4-(4-(Benzo[d]oxazol-2-ylamino)phenyl)phthalazin-1(2H)-one], in that order: 0.1 to 100 nM and 0.1 to 100 nM.
Regarding `COC(=O)CCn1nc(C(=O)Nc2ccc(-c3n[nH]c(=O)c4ccccc34)cc2)c2ccccc21` [Example 332, Methyl 3-(3-((4-(4-oxo-3,4-dihydrophthalazin-1-yl)phenyl)carbamoyl)-1H-indazol-1-yl)propanoate], the IC50 at ROCK1 and against ROCK2 was 0.1 to 100 nM in each case.
As for `Cc1noc(-c2ccc(C(C)(C)O)cc2)c1C(=O)Nc1ccc(-c2n[nH]c(=O)c3ccccc23)cc1` [Example 223, 5-[4-(2-hydroxypropan-2-yl)phenyl]-3-methyl-N-[4-(4-oxo-3,4-dihydrophthalazin-1-yl)phenyl]-1,2-oxazole-4-carboxamide], the IC50 at ROCK1 and against ROCK2 was 0.1 to 100 nM each time.
For `Cn1c(C(=O)Nc2ccc(-c3n[nH]c(=O)c4ccccc34)cc2)cc2cc(Cl)ccc21` [Example 96, 5-chloro-1-methyl-N-[4-(4-oxo-3,4-dihydrophthalazin-1-yl)phenyl]-1H-indole-2-carboxamide], the IC50 on ROCK1 is 101 to 1000 nM; on ROCK2, 0.1 to 100 nM.
For `CCOc1ccc2c(c1)N(C(=O)Cc1ccc(-c3c[nH]c(=O)c4ccccc34)cc1)CC2` [Example 254, 4-(4-(2-(6-Ethoxyindolin-1-yl)-2-oxoethyl)phenyl)isoquinolin-1(2H)-one], in that order: 101 to 1000 nM and 0.1 to 100 nM.
For `CCOc1cc(NC(=O)c2nn(CC(C)(C)O)c3ccccc23)ccc1-c1n[nH]c(=O)c2ccccc12` [Example 346, N-(3-Ethoxy-4-(4-oxo-3,4-dihydrophthalazin-1-yl)phenyl)-1-(2-hydroxy-2-methylpropyl)-1H-indazole-3-carboxamide] the same measures were 1000 to 50000 nM and 101 to 1000 nM.
For `CC(C)(O)Cn1nc(C(=O)Nc2ccc(-c3n[nH]c(=O)c4ccccc34)cc2)c2ccc(F)cc21` [Example 158, 6-fluoro-1-(2-hydroxy-2-methylpropyl)-N-[4-(4-oxo-3,4-dihydrophthalazin-1-yl)phenyl]-1H-indazole-3-carboxamide], in that order: 0.1 to 100 nM and 0.1 to 100 nM.
As for “2-[4-(4-oxo-3,4- dihydrophthalazin-1- yl)phenyl]-N-[(1S,2R)- 2-phenylcyclopropyl] acetamide [Example 18]”, the IC50 at ROCK1 and against ROCK2 was 1000 to 50000 nM in each case.
For the molecule `Cc1cc(NC(=O)c2cn(CC(C)(C)O)c3ccccc23)ccc1-c1n[nH]c(=O)c2ccccc12` [Example 302, 1-(2-hydroxy-2-methylpropyl)-N-[3-methyl-4-(4-oxo-3,4-dihydrophthalazin-1-yl)phenyl]-1H-indole-3-carboxamide], the IC50 at ROCK1 and at ROCK2 was 0.1 to 100 nM each time.
Regarding `O=C(Nc1ccc(-c2n[nH]c(=O)c3ccccc23)cc1)c1cnn(CCCN2CCCC2)c1` [Example 399, N-(4-(4-Oxo-3,4-dihydrophthalazin-1-yl)phenyl)-1-(3-(pyrrolidin-1-yl)propyl)-1H-pyrazole-4-carboxamide], the IC50 on ROCK1 and against ROCK2 was 101 to 1000 nM in each case.
With `O=C(Cc1ccc(-c2n[nH]c(=O)c3ccccc23)cc1)N1CCc2ccc(OCC3COC3)cc21` [Example 284, 4-(4-{2-[6-(oxetan-3-ylmethoxy)-2,3-dihydro-1H-indol-1-yl]-2-oxoethyl}phenyl)-1,2-dihydrophthalazin-1-one], the IC50 at ROCK1 and on ROCK2 was 0.1 to 100 nM in each case.
